Results on nine compounds are retold here after ChEMBL document CHEMBL1127768, “Possible antineoplastic agents : part 14 - synthesis, activity and QSAR studies of some 1-(substituted benzenesulphonyl)-5-oxopyrrolidine-2-carboxylic acid hydrazides” (1994).

Common to all, as to assay type: functional
For assay [1], the species on record is Mus musculus. As to the kind of experiment: Observed biological activity converted into logit model against Ehrlich ascites carcinoma in mice.
Assay [2] deals with Mus musculus. As to the kind of experiment: In vivo antineoplastic activity against Ehrlich ascites carcinoma (EAC) cells in mice at 50 mg/kg body weight upon intraperitoneal administration. Particulars: ip.
The subject of assay [3] is Mus musculus. As to the kind of experiment: In vivo antineoplastic activity against Ehrlich ascites carcinoma fluid in mice at 50 mg/kg body weight upon intraperitoneal administration. The following applies: ip.
The subject of assay [4] is Mus musculus. The assay is described as follows: In vivo antineoplastic activity against Ehrlich ascites carcinoma fluid in mice at 1 mg/kg body weight upon intraperitoneal administration. Particulars: ip.
The subject of assay [5] is Mus musculus. The assay is described as follows: In vivo antineoplastic activity against Ehrlich ascites carcinoma (EAC) cells in mice at 1 mg/kg body weight upon intraperitoneal administration. Particulars: ip.

Usually inhibition in vivo stands for the percentage by which the read-out fell short of the control.

In the assay listed under Mus musculus [1], `O=C(NNc1ccccc1)C1CCC(=O)N1S(=O)(=O)c1ccc(Cl)cc1` (stereo unspecified) showed a logit activity of 3.13. Further, the inhibition in vivo at 50 mg/kg in the assay with Mus musculus [2] turned out to be 74.3%; in the assay with Mus musculus [3] it was 71.4%.
The like results for `NNC(=O)C1CCC(=O)N1S(=O)(=O)c1ccc(Cl)c(Cl)c1` (stereo unspecified) were, in that order, 1.03, 59.3% and 58.3%.
The corresponding values for `Cc1ccc(S(=O)(=O)N2C(=O)CCC2C(=O)NNc2ccccc2)cc1` (stereo unspecified) are 1.89, 77.6% and 64.3%.
The like results for `O=C(NNc1ccccc1)C1CCC(=O)N1S(=O)(=O)c1ccccc1` (stereo unspecified) were, in that order, 5.59, 79% and 85.7%.
Consider `NNC(=O)C1CCC(=O)N1S(=O)(=O)c1ccc(Cl)cc1` (stereo unspecified), for which, in the assay filed under Mus musculus [1], the logit activity stood at 1.25. For the same compound, the inhibition in vivo at 50 mg/kg came out at 64.9% in the assay on Mus musculus [2] and 61.1% in the assay on Mus musculus [3].
In the assay filed under Mus musculus [1], `O=C(NNc1ccccc1)C1CCC(=O)N1S(=O)(=O)c1ccc(Cl)c(Cl)c1` (stereo unspecified) returned a logit activity of 1.16. The inhibition in vivo at 50 mg/kg in the assay on Mus musculus [2] was 66.8%; in the assay with Mus musculus [3], 57.7%.
The corresponding values for `Cc1ccc(S(=O)(=O)N2C(=O)CCC2C(=O)NN)cc1` (stereo unspecified) are 0.61, 50.1% and 52.8%.
The like results for `NNC(=O)C1CCC(=O)N1S(=O)(=O)c1ccccc1` (stereo unspecified) were, in that order, -0.549, 40.3% and 44.4%.
For the compound `CO[C@@]12[C@H](COC(N)=O)C3=C(C(=O)C(C)=C(N)C3=O)N1C[C@@H]1N[C@@H]12` [MITOMYCIN], the inhibition in vivo at 1 mg/kg with Mus musculus [4] and in the assay on Mus musculus [5] was 100% each time.
